Data as given in patent US20170071852A1, “THERAPEUTIC OR PREVENTIVE AGENT FOR MEIBOMIAN GLAND DYSFUNCTION OR MEIBOMIAN GLAND BLOCKAGE” (Santen Pharmaceutical Co., Ltd., priority 2012, published 2017).
Entries after “also recorded” stand apart in the source; their conditions may differ.

Experiments:
[1] = system: female Lewis rats; assay: Test for meibomian gland peripheral telangiectasia by administration of complete Freund's adjuvant using rats; assay type: in vivo, rat; conditions: for Telangiectasia score (mean): six eyes
Description: 1. Test for Meibomian Gland Peripheral Telangiectasia by Administration of Full Friend's Adjuvant Using Rats Clarithromycin (LKT Laboratories, Inc.), concentrated glycerin, dibasic sodium phosphate hydrate and polyoxyl 40 stearate were added to purified water and dissolved to prepare a test sample comprising clarithromycin at a final concentration of 1% (w/v), at pH 7. Twenty five μl of complete Freund's adjuvant was administered to one site of the right upper eyelid of female Lewis rats at five weeks age. On the seventh day from the initiation, the periphery of the meibomian gland orifices on the right upper eyelid was observed using a slit-lamp and a telangiectasia score was determined. The eyelid margin of the upper eyelid was divided into three segments: ear, middle and nasal sites, and based on criteria described in Table 1, scores of telangiectasia peripheral to the meibomian gland orifices in each segment were determined and the sum of the scores in three segments were calculated as the telangiectasia score of one eye. The presence or absence of dilation of the capillaries was determined based on whether a capillary that is usually not visible could be ascertained as a result of enlargement of the capillary diameter. [table] After dividing into a saline-administered group and a 1% (w/v) clarithromycin aqueous solution-administered groups, the test was carried out with six eyes in each group so as to minimize variations in mean scores, and from the 8th day after initiation, saline (5 μl/eye, six times per day) or 1% (w/v) clarithromycin aqueous solution (5 μl/eye, three or six times per day) were instilled into the right eyes for 21 days. At 28 days after initiation, the peripheries of the meibomian gland orifices on the right upper eyelids were observed using a slit-lamp and the telangiectasia score was determined.

[2] = system: Male Hos:HR-1 hairless mice; assay: Test for obstruction of meibomian gland orifices by feeding HR-AD diet using hairless mice; assay type: in vivo, mouse; conditions: for Number of obstructed meibomian gland orifices (mean, out of eight): six eyes
Description: 2. Test for Obstruction of Meibomian Gland Orifices by Feeding HR-AD Diet Using Hairless Mice A 1% (w/v) clarithromycin test solution was prepared by the same operation as described in Pharmacological Test 1. Male Hos:HR-1 hairless mice at five weeks of age were divided into a group of 6 fed a regular diet (CRF-1 diet, manufactured by Oriental Yeast Co., Ltd.); and a group of 12 fed an HR-AD diet (manufactured by Nosan Corporation), and the mice in each respective group were freely allowed to feed the regular diet or HR-AD diet. On the 28th day after the start of the diets, meibomian gland orifices were observed using a slit-lamp and the number of obstructed orifices out of eight meibomian gland orifices of the center of the right upper eyelid were counted. The presence or absence of an obstruction of the meibomian gland orifice was determined based on whether the meibomian gland orifice was in a cloudy and swollen state. The 12 mice in the HR-AD diet group were further divided into a saline-administered group; and a 1% (w/v) clarithromycin aqueous solution-administered group, and testing was carried out with six eyes in each group so as to minimize variations in the mean scores of the number of obstructed meibomian gland orifices in each group; from the 29th day after starting the diets, saline (2 μl/eye, three times per day) or 1% (w/v) clarithromycin aqueous solution (2 μl/eye, three times per day) were instilled for 14 days. At 42 days after starting the diet, meibomian gland orifices were observed using a slit-lamp and the number of obstructed orifices out of eight meibomian gland orifices of the center of the right upper eyelid were counted.

[3] = 42 days after starting HR-AD diet (14 days from starting administration), 1% (w/v) aqueous solution

CC[C@H]1OC(=O)[C@H](C)[C@@H](O[C@H]2C[C@@](C)(OC)[C@@H](O)[C@H](C)O2)[C@H](C)[C@@H](O[C@@H]2O[C@H](C)C[C@H](N(C)C)[C@H]2O)[C@](C)(OC)C[C@@H](C)C(=O)[C@H](C)[C@@H](O)[C@]1(C)O [clarithromycin, Clarithromycin]
Telangiectasia score (mean) ([1]; 7 days after initiation (day 0 from start of administration, baseline), 1% (w/v) aqueous solution group, instilled 3 times per day): 5.3 | Telangiectasia score (mean) ([1]; 7 days after initiation (day 0 from start of administration, baseline), 1% (w/v) aqueous solution group, instilled 6 times per day): 5.3 | Telangiectasia score (mean) ([1]; 28 days after initiation (day 21 from start of administration), 1% (w/v) aqueous solution, 5 μl/eye, instilled 3 times per day): 2.8 | Telangiectasia score (mean) ([1]; 28 days after initiation (day 21 from start of administration), 1% (w/v) aqueous solution, 5 μl/eye, instilled 6 times per day): 2.5 | Telangiectasia score in the vicinity of the meibomian gland orifices compared to the saline-administered group ([1]; 28 days after initiation (day 21 from start of administration), 1% aqueous solution instilled three or six times per day): notably improved the telangiectasia score; also recorded: remarkably lower | Number of obstructed meibomian gland orifices (mean, out of eight) ([2]; 28 days after starting feeding HR-AD diet (day 0 from start of administration, baseline), 1% (w/v) aqueous solution group): 5.5 | Meibomian gland concretion [2, 3]: improved | Number of obstructed meibomian gland orifices, change in words [2, 3]: notably reduced the number of obstructions; also recorded: remarkably decreased | Number of obstructed meibomian gland orifices (mean, out of eight) ([2]; 42 days after starting feeding HR-AD diet (day 14 from start of administration), 1% (w/v) aqueous solution, 2 μl/eye, three times per day): 1.8
